Laboratory results reported in paper PMC8253220, “Molecular design, synthesis and in vitro biological evaluation of thienopyrimidine–hydroxamic acids as chimeric kinase HDAC inhibitors: a challenging approach to combat cancer” (Journal of Enzyme Inhibition and Medicinal Chemistry, 2021).
“And” between values parts separate entries of the source, which are not always exact repeats. Equal entries are not always repeated.

Columns and labels:
Assay in all cases: NCI one-dose screen
Assay type in all cases: cell-based, human
A549/ATCC = conditions: NSCLC A549/ATCC, 10 µM single dose
In short: (§1)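 At 10 μM, a single concentration, compounds were evaluated for antiproliferative effect in the NCI 60-line screen, with growth expressed relative to untreated control cells.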

ACHN = conditions: Renal ACHN, 10 µM single dose
In short: as §1

BT-549 = conditions: Breast BT-549, 10 µM single dose
In short: as §1

CAKI-1 = conditions: Renal CAKI-1, 10 µM single dose
In short: as §1

CCRF-CEM = conditions: Leukemia CCRF-CEM, 10 µM single dose
In short: as §1

COLO 205 = conditions: Colon COLO 205, 10 µM single dose
In short: as §1

DU-145 = conditions: Prostate DU-145, 10 µM single dose
In short: as §1

EKVX = conditions: NSCLC EKVX, 10 µM single dose
In short: (§2)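 Each cell line received compound at 10 μM as part of the NCI one-dose protocol. Values reflect growth inhibition percent calculated from growth relative to untreated controls.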

HCT-116 = conditions: Colon HCT-116, 10 µM single dose
In short: as §1

HL-60(TB) = conditions: Leukemia HL-60(TB), 10 µM single dose
In short: as §1

HOP-62 = conditions: NSCLC HOP-62, 10 µM single dose
In short: (§3)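 One concentration (10 μM) applied to each line of the full NCI-60 panel; percent growth compared against untreated cells.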

HS 578T = conditions: Breast HS 578T, 10 µM single dose
In short: as §1

LOX IMVI = conditions: Melanoma LOX IMVI, 10 µM single dose
In short: as §1

MALME-3M = conditions: Melanoma MALME-3M, 10 µM single dose
In short: as §1

MCF7 = conditions: for Growth Percent: Breast MCF7, 10 µM single dose
In short: (§4)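 Following the standard NCI-60 protocol, compounds were applied once at 10 μM to all 60 cancer lines. Read-out is percent growth versus untreated controls, expressed as inhibition %.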

MDA-MB-231/ATCC = conditions: Breast MDA-MB-231/ATCC, 10 µM single dose
In short: as §1

MOLT-4 = conditions: for Growth Percent: Leukemia MOLT-4, 10 µM single dose
In short: as §4

NCI-H226 = conditions: NSCLC NCI-H226, 10 µM single dose
In short: as §2

NCI-H322M = conditions: NSCLC NCI-H322M, 10 µM single dose
In short: as §1

NCI-H460 = conditions: NSCLC NCI-H460, 10 µM single dose
In short: as §1

NCI-H522 = conditions: for Growth Percent: NSCLC NCI-H522, 10 µM single dose
In short: as §2

NCI/ADR-RES = conditions: Ovarian NCI/ADR-RES, 10 µM single dose
In short: as §1

OVCAR-3 = conditions: Ovarian OVCAR-3, 10 µM single dose
In short: as §1

OVCAR-8 = conditions: Ovarian OVCAR-8, 10 µM single dose
In short: as §1

PC-3 = conditions: Prostate PC-3, 10 µM single dose
In short: as §4

RXF 393 = conditions: Renal RXF 393, 10 µM single dose
In short: as §1

SF-268 = conditions: for Growth Percent: CNS SF-268, 10 µM single dose
In short: as §4

SF-295 = conditions: CNS SF-295, 10 µM single dose
In short: as §1

SF-539 = conditions: for Growth Percent: CNS SF-539, 10 µM single dose
In short: as §4

SK-MEL-28 = conditions: Melanoma SK-MEL-28, 10 µM single dose
In short: as §4

SN12C = conditions: Renal SN12C, 10 µM single dose
In short: as §1

SNB-19 = conditions: CNS SNB-19, 10 µM single dose
In short: as §3

SR = conditions: Leukemia SR, 10 µM single dose
In short: as §1

SW-620 = conditions: Colon SW-620, 10 µM single dose
In short: as §4

TK-10 = conditions: Renal TK-10, 10 µM single dose
In short: as §1

U251 = conditions: for Growth Percent: CNS U251, 10 µM single dose
In short: as §2

UACC-62 = conditions: Melanoma UACC-62, 10 µM single dose
In short: as §1

Cc1c(C(=O)NO)sc2ncnc(Nc3ccc(NC(=O)Nc4cccc(C(F)(F)F)c4)cc3)c12 [Compound 7c, 1–(4-(6-(hydroxycarbamoyl)-5-methylthieno[2,3-d]pyrimidin-4-ylamino)phenyl)-3–(3-(trifluoromethyl)phenyl)urea]
Growth Percent (A549/ATCC): 100.4% and 100.47% | Growth Percent (ACHN): 94.84% | Growth Percent (BT-549): 115.1% and 115.17% | Growth Percent (CAKI-1): 90.57% | Growth Percent (CCRF-CEM): 101.6% | Growth Percent (COLO 205): 103.3% and 103.35% | Growth Percent (DU-145): 104.5% and 104.51% | Growth Percent (EKVX): 95.7% and 95.77% | Growth Percent (HCT-116): 97.9% and 97.94% | Growth Percent (HL-60(TB)): 102.0% and 102.08% | Growth Percent (HOP-62): 93.7% and 93.71% | Growth Percent (HS 578T): 90.3% and 90.32% | Growth Percent (LOX IMVI): 90.9% and 90.99% | Growth Percent (MALME-3M): 105.0% and 105.06% | Growth Percent (MCF7): 88.4% and 88.42% | inhibition at 10 µM (MCF7; Homo sapiens, breast MCF7, 10 μM): 11.6% | Growth Percent (MDA-MB-231/ATCC): 95.2% and 95.26% | inhibition at 10 µM (MOLT-4; Homo sapiens, leukaemia MOLT-4, 10 μM): 11.8% | Growth Percent (MOLT-4): 88.2% and 88.24% | Growth Percent (NCI-H226): 99.2% and 99.29% | Growth Percent (NCI-H322M): 99.6% and 99.69% | Growth Percent (NCI-H460): 101.7% and 101.73% | inhibition at 10 µM (NCI-H522; Homo sapiens, NSCLC NCI-H522, 10 μM): 11.7% | Growth Percent (NCI-H522): 88.3% and 88.38% | Growth Percent (NCI/ADR-RES): 97.6% and 97.66% | Growth Percent (OVCAR-3): 104.2% and 104.27% | Growth Percent (OVCAR-8): 100.4% and 100.41% | Growth Percent (PC-3): 91.1% and 91.19% | Growth Percent (RXF 393): 106.61% | Growth Percent (SF-268): 89.2% | inhibition at 10 µM (SF-268; Homo sapiens, CNS SF-268, 10 μM): 10.8% | Growth Percent (SF-295): 95.1% and 95.16% | Growth Percent (SF-539): 61.4% and 61.49% | inhibition at 10 µM (SF-539; Homo sapiens, CNS SF-539, 10 μM): 38.6% | Growth Percent (SK-MEL-28): 108.2% and 108.23% | Growth Percent (SN12C): 97.89% | Growth Percent (SNB-19): 90.8% and 90.81% | Growth Percent (SR): 94.0% and 94.07% | Growth Percent (SW-620): 108.7% and 108.79% | Growth Percent (TK-10): 116.24% | Growth Percent (U251): 73.1% and 73.13% | inhibition at 10 µM (U251; Homo sapiens, U-251, CNS U251, 10 μM): 26.9% | Growth Percent (UACC-62): 96.4%

Cc1c(C(=O)NO)sc2ncnc(Nc3ccc(NC(=S)Nc4ccccc4)cc3)c12 [Compound 7d, 1–(4-(6-(hydroxycarbamoyl)-5-methylthieno[2,3-d]pyrimidin-4-ylamino)phenyl)-3-phenylthiourea]
Growth Percent (A549/ATCC): 101.3% and 101.33% | Growth Percent (ACHN): 105.4% and 105.43% | Growth Percent (BT-549): 106.3% and 106.33% | Growth Percent (CAKI-1): 96.5% and 96.56% | Growth Percent (COLO 205): 112.9% and 112.97% | Growth Percent (DU-145): 106.96% | Growth Percent (EKVX): 93.6% and 93.61% | Growth Percent (HCT-116): 105.2% and 105.28% | Growth Percent (HL-60(TB)): 102.7% and 102.72% | Growth Percent (HOP-62): 100.8% and 100.85% | Growth Percent (HS 578T): 104.5% and 104.57% | Growth Percent (LOX IMVI): 93.7% and 93.76% | Growth Percent (MALME-3M): 99.4% and 99.48% | Growth Percent (MCF7): 95.2% and 95.28% | Growth Percent (MDA-MB-231/ATCC): 94.9% and 94.96% | Growth Percent (MOLT-4): 111.3% and 111.35% | Growth Percent (NCI-H226): 103.8% and 103.88% | Growth Percent (NCI-H322M): 107.3% and 107.32% | Growth Percent (NCI-H460): 102.0% and 102.05% | Growth Percent (NCI-H522): 92.1% and 92.13% | Growth Percent (NCI/ADR-RES): 99.5% and 99.55% | Growth Percent (OVCAR-3): 111.0% and 111.03% | Growth Percent (OVCAR-8): 103.1% | Growth Percent (PC-3): 105.6% and 105.68% | Growth Percent (RXF 393): 103.7% and 103.72% | Growth Percent (SF-268): 98.1% and 98.17% | Growth Percent (SF-295): 98.3% and 98.32% | Growth Percent (SF-539): 100.3% and 100.31% | Growth Percent (SK-MEL-28): 105.0% and 105.07% | Growth Percent (SN12C): 100.8% and 100.86% | Growth Percent (SNB-19): 96.4% and 96.45% | Growth Percent (SR): 110.3% and 110.34% | Growth Percent (SW-620): 104.8% and 104.86% | Growth Percent (TK-10): 106.3% and 106.37% | Growth Percent (U251): 104.0% and 104.08% | Growth Percent (UACC-62): 94.9% and 94.97%
